Reference: ChEMBL document CHEMBL4507293 (2021)

Experiments:
[1] = biological target: Alpha-1D adrenergic receptor (Homo sapiens) (UniProt P25100); test: Inhibition of Adrenergic alpha1D at 10 µM in the Eurofins-Panlabs radioligand binding assay (Eurofins_assay_203400); details: Compound concentration 10.0 uM
Rattus norvegicus [2] = species on record: Rattus norvegicus; test: Testosterone Eurofins-Panlabs radioligand binding assay; set-up: ligand concentration 1.5 nM; details: Compound concentration 10.0 uM
Rattus norvegicus [3] = species on record: Rattus norvegicus; test: Inhibition of Glutamate, NMDA, Phencyclidine at 10 µM in the Eurofins-Panlabs radioligand binding assay (Eurofins_assay_233000); format: protein-complex assay; details: Compound concentration 10.0 uM
[4] = biological target: Acetylcholine receptor subunit alpha (Homo sapiens) (UniProt P02708); test: Inhibition of Nicotinic Acetylcholine D1, Bungarotoxin at 10 µM in the Eurofins-Panlabs radioligand binding assay (Eurofins_assay_258700); details: Compound concentration 10.0 uM
[5] = biological target: Mitogen-activated protein kinase 3 (Homo sapiens) (UniProt P27361); test: Inhibition of Protein Serine/Threonine Kinase, MAPK3 (ERK1) at 10 µM in the Eurofins-Panlabs enzyme assay (Eurofins_assay_171000); details: Compound concentration 10.0 uM
Rattus norvegicus [6] = species on record: Rattus norvegicus; test: Inhibition of Glycine, Strychnine-Sensitive at 10 µM in the Eurofins-Panlabs radioligand binding assay (Eurofins_assay_239000); details: Compound concentration 10.0 uM
[7] = biological target: Melanocortin receptor 3 (Homo sapiens) (UniProt P41968); test: Inhibition of Melanocortin MC3 at 10 µM in the Eurofins-Panlabs radioligand binding assay (Eurofins_assay_251300); set-up: ligand concentration 0.035 nM; details: Compound concentration 10.0 uM
[8] = biological target: Melanocortin receptor 5 (Homo sapiens) (UniProt P33032); test: Inhibition of Melanocortin MC5 at 10 µM in the Eurofins-Panlabs radioligand binding assay (Eurofins_assay_251400); set-up: ligand concentration 0.035 nM; details: Compound concentration 10.0 uM
[9] = biological target: 5-hydroxytryptamine receptor 1B (Homo sapiens) (UniProt P28222); test: Inhibition of Serotonin (5-Hydroxytryptamine) 5-HT1B at 10 µM in the Eurofins-Panlabs radioligand binding assay (Eurofins_assay_271200); details: Compound concentration 10.0 uM
Caspase-9 (Homo sapiens) = Caspase-9 (Homo sapiens) (UniProt P55211); test: Peptidase, CASP9 (Caspase 9) Eurofins-Panlabs enzyme assay; set-up: substrate with concentration; details: Compound concentration 10.0 uM
Bos taurus = species on record: Bos taurus; test: Protein Serine/Threonine Kinase, PKA, Non-Selective Eurofins-Panlabs enzyme assay; format: protein-complex assay; set-up: substrate with concentration 370 µg/mL Histone Type III-S, incubation time 15 min, incubation temperature 25 °C; details: Compound concentration 10.0 uM
Rattus norvegicus [10] = species on record: Rattus norvegicus; test: Protein Serine/Threonine Kinase, PKC, Non-Selective Eurofins-Panlabs enzyme assay; details: Compound concentration 10.0 uM
[11] = biological target: Tyrosine 3-monooxygenase (Homo sapiens) (UniProt P07101); test: Tyrosine Hydroxylase Eurofins-Panlabs enzyme assay; set-up: substrate with concentration; details: Rattus norvegicus; Compound concentration 10.0 uM
[12] = biological target: Corticotropin-releasing factor receptor 1 (Homo sapiens) (UniProt P34998); test: Corticotropin Releasing Factor CRF1 Eurofins-Panlabs radioligand binding assay; details: Compound concentration 10.0 uM
Homo sapiens = species on record: Homo sapiens; test: Glutamate, Metabotropic, mGlu5 Eurofins-Panlabs radioligand binding assay; details: Compound concentration 10.0 uM
[13] = biological target: Melanocyte-stimulating hormone receptor (Homo sapiens) (UniProt Q01726); test: Melanocortin MC1 Eurofins-Panlabs radioligand binding assay; details: Compound concentration 10.0 uM
[14] = biological target: Retinoic acid receptor RXR-alpha (Homo sapiens) (UniProt P19793); test: Retinoid X Receptor RXRalpha Eurofins-Panlabs radioligand binding assay; details: Compound concentration 10.0 uM
[15] = biological target: Insulin receptor (Homo sapiens) (UniProt P06213); test: Protein Tyrosine Kinase, Insulin Receptor Eurofins-Panlabs enzyme assay; set-up: substrate with concentration 10 µg/mL Histone H1, incubation time 60 min, incubation temperature 25 °C; details: Compound concentration 10.0 uM
[16] = biological target: Prostaglandin E2 receptor EP1 subtype (Homo sapiens) (UniProt P34995); test: Prostanoid EP1 Eurofins-Panlabs radioligand binding assay; details: Compound concentration 10.0 uM
[17] = biological target: Prostaglandin F2-alpha receptor (Homo sapiens) (UniProt P43088); test: Prostanoid FP Eurofins-Panlabs radioligand binding assay; set-up: ligand concentration 0.95 nM; details: Compound concentration 10.0 uM
[18] = biological target: Endothelin receptor type B (Homo sapiens) (UniProt P24530); details: Compound concentration 10.0 uM
[19] = biological target: Histamine H2 receptor (Homo sapiens) (UniProt P25021); details: Compound concentration 10.0 uM
[20] = biological target: T1, Muscarinic acetylcholine receptor M1 (Homo sapiens) (UniProt P11229); details: Compound concentration 10.0 uM
T1 sequence (whole entry): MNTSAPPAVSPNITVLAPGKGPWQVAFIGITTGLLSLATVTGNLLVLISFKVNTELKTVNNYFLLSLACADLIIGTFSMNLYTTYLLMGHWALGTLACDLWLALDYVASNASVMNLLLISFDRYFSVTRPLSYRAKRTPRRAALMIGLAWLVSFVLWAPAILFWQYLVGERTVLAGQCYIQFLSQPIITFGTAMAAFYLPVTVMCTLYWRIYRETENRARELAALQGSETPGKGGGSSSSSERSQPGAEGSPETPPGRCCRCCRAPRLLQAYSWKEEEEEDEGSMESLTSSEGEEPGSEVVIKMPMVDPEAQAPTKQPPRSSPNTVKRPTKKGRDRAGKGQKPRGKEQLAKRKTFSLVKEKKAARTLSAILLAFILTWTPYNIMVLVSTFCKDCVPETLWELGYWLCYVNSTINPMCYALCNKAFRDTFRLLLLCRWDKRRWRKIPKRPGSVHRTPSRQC

[21] = biological target: Mu-type opioid receptor (Homo sapiens) (UniProt P35372); details: Compound concentration 10.0 uM
[22] = biological target: 5-hydroxytryptamine receptor 2B (Homo sapiens) (UniProt P41595); details: Compound concentration 10.0 uM
[23] = biological target: Acetylcholinesterase (Homo sapiens) (UniProt P22303); details: Compound concentration 10.0 uM
[24] = biological target: GABA-A receptor; anion channel (Rattus norvegicus) (UniProt O09028+P15431+P18506+P18508+P19969+P20236+P23574+P23576+P28471+P28473+P30191+P62813+P63079+P63138+Q91ZM7+Q9ES14); details: Compound concentration 10.0 uM
[25] = biological target: T2, 5-hydroxytryptamine receptor 2C (Homo sapiens) (UniProt P28335); details: Compound concentration 10.0 uM
T2 sequence (whole entry): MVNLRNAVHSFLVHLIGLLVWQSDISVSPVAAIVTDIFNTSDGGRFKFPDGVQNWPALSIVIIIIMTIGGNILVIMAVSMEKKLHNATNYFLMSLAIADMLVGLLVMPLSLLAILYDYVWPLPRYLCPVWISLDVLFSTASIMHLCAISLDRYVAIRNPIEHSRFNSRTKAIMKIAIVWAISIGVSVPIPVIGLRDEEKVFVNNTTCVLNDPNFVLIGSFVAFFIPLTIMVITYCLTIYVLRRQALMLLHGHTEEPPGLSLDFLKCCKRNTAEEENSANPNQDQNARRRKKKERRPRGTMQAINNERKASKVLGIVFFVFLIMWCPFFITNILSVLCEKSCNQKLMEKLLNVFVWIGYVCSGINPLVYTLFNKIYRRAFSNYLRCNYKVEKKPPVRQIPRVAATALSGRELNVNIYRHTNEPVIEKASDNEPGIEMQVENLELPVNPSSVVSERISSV

[26] = biological target: Mitogen-activated protein kinase kinase kinase 2 (Homo sapiens) (UniProt Q9Y2U5); details: Compound concentration 100.0 nM
[27] = biological target: Phosphatidylinositol 5-phosphate 4-kinase type-2 gamma (Homo sapiens) (UniProt Q8TBX8); details: Compound concentration 100.0 nM
Phosphatidylinositol 5-phosphate 4-kinase type-2 gamma (Homo sapiens), sequence (Q8TBX8 whole entry): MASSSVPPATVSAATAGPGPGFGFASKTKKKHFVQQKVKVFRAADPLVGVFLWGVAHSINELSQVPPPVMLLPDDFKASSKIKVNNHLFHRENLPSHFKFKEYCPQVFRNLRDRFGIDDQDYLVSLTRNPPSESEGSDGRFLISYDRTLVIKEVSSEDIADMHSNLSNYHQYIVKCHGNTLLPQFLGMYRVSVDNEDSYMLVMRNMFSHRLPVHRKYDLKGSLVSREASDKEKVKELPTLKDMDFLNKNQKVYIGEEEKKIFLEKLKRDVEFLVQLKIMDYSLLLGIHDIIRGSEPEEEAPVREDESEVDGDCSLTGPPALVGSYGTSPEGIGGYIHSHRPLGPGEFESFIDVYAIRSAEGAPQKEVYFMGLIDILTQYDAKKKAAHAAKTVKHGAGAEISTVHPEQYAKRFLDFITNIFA

Alpha-1D adrenergic receptor (Homo sapiens), sequence (P25100 whole entry): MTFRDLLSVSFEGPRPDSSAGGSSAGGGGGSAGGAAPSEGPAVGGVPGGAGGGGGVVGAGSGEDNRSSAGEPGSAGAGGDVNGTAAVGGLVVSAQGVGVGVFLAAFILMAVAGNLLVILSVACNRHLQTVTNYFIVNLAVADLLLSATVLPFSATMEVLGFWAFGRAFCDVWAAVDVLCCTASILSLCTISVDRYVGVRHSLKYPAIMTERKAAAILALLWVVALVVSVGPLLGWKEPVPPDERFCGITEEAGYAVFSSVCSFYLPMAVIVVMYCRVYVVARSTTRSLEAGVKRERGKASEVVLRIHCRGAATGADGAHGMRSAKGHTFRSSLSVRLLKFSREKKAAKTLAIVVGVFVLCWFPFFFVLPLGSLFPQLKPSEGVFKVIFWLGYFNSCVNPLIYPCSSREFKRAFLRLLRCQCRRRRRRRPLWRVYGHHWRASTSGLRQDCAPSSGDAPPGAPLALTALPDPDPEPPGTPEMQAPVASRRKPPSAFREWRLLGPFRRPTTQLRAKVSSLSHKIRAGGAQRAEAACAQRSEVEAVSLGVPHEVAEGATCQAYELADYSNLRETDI
Acetylcholinesterase (Homo sapiens), sequence (P22303 whole entry): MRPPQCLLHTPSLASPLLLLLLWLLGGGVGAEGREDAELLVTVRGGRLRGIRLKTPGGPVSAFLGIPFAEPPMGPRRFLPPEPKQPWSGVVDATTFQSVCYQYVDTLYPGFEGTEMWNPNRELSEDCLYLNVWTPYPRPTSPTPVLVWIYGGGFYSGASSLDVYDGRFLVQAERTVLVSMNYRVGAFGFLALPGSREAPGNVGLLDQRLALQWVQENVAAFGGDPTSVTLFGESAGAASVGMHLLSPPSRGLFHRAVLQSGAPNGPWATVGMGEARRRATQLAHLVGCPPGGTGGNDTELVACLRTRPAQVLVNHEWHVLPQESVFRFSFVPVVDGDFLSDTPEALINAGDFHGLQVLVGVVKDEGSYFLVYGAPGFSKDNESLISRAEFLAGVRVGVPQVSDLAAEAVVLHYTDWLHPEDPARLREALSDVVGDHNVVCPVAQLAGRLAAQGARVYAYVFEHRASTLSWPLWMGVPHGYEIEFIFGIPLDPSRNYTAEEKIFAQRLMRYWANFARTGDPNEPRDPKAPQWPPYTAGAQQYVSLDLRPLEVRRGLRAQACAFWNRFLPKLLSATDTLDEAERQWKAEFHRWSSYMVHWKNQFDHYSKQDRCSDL
Histamine H2 receptor (Homo sapiens), sequence (P25021 whole entry): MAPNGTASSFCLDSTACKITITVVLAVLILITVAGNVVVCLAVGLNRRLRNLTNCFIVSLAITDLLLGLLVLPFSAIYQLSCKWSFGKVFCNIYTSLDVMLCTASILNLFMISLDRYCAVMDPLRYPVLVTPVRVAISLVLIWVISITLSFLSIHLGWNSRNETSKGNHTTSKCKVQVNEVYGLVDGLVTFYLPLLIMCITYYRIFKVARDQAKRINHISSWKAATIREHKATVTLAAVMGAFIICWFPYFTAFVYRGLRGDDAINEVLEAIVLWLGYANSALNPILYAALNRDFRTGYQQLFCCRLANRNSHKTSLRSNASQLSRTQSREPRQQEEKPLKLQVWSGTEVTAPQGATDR
Mitogen-activated protein kinase kinase kinase 2 (Homo sapiens), sequence (Q9Y2U5 whole entry): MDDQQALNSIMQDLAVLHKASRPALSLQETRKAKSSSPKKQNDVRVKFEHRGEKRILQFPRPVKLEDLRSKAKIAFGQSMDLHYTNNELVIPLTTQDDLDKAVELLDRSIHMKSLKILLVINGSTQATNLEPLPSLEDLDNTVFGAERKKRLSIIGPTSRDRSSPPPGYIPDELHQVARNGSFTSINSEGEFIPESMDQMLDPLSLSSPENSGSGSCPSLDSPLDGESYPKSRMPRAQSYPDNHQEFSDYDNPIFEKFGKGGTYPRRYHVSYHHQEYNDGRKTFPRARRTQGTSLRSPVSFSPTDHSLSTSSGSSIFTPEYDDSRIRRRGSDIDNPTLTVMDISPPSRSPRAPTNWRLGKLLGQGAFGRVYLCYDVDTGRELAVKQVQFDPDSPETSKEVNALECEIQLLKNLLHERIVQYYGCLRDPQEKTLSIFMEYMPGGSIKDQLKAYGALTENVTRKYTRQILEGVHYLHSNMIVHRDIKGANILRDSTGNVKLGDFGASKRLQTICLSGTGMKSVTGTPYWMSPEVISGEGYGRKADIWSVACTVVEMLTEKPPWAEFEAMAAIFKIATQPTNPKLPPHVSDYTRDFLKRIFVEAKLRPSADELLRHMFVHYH
Melanocortin receptor 3 (Homo sapiens), sequence (P41968 whole entry): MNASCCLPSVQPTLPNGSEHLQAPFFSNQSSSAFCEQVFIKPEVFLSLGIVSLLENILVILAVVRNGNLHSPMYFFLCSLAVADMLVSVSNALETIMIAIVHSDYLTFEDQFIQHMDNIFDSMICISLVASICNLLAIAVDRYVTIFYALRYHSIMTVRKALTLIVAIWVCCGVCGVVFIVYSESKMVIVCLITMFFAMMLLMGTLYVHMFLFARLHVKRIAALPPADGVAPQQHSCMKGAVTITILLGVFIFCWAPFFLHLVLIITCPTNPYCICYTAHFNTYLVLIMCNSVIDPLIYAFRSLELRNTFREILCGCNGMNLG
Caspase-9 (Homo sapiens), sequence (P55211 1-315 limits assumed): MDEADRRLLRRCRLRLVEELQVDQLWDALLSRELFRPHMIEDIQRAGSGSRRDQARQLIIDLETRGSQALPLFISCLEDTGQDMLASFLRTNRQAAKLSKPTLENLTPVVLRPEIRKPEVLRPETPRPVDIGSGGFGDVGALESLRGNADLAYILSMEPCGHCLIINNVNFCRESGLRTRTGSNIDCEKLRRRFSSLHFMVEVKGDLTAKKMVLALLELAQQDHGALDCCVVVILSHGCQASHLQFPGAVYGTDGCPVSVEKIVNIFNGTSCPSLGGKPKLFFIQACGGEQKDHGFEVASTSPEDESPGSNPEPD
Caspase-9 (Homo sapiens), sequence (P55211 331-416 limits assumed): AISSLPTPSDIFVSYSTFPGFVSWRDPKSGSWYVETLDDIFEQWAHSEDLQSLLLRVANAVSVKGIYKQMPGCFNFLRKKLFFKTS
Endothelin receptor type B (Homo sapiens), sequence (P24530 whole entry): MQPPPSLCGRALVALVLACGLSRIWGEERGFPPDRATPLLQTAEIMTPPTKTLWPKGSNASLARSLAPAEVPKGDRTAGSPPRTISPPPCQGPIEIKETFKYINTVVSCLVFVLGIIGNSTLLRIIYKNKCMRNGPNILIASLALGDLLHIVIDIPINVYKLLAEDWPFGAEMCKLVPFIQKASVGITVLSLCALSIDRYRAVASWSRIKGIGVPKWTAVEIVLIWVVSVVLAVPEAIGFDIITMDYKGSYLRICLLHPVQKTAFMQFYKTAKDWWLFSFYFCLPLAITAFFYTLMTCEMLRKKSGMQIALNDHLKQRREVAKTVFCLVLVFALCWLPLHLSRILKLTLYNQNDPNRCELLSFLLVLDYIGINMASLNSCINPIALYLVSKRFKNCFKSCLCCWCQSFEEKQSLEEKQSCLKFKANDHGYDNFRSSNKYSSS
Melanocyte-stimulating hormone receptor (Homo sapiens), sequence (Q01726 whole entry, looked up): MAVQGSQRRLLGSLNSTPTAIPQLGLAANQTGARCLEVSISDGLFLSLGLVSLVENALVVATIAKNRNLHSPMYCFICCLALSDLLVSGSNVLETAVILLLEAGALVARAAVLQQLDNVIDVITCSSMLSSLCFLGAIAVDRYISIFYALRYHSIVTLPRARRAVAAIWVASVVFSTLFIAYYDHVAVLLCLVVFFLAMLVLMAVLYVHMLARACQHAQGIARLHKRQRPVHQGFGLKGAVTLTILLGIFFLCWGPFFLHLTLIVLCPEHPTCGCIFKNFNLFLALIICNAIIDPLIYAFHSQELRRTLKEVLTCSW
Prostaglandin F2-alpha receptor (Homo sapiens), sequence (P43088 whole entry): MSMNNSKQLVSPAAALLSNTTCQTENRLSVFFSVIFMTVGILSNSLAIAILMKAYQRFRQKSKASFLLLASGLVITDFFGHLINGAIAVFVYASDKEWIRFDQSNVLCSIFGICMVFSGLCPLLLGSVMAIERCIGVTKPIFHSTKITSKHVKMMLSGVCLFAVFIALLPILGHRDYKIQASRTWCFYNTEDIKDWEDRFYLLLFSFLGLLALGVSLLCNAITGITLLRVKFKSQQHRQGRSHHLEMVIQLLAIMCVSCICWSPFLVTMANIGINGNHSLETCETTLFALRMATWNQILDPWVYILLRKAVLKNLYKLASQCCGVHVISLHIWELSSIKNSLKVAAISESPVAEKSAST
5-hydroxytryptamine receptor 1B (Homo sapiens), sequence (P28222 whole entry): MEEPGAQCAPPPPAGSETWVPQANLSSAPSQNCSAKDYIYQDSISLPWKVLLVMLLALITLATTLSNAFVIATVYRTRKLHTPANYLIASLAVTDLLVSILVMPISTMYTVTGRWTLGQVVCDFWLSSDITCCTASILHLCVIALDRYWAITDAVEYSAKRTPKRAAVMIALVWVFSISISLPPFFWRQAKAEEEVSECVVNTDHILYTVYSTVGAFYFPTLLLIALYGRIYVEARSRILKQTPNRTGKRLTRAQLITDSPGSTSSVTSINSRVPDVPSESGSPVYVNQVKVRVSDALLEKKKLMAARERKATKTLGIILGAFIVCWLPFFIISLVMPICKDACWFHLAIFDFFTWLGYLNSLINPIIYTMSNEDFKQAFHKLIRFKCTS

COCCOc1nc(-c2ccc(Cl)nc2)nc2c1CN(C(=O)c1ncn3ccccc13)CC2 [THPP-1]
inactive: inhibition [1] 45% | inhibition (Rattus norvegicus [2]) 7% | inhibition (Rattus norvegicus [3]) -10% | inhibition [4] -3% | inhibition [5] 6% | inhibition (Rattus norvegicus [6]) 15% | inhibition [7] 0% | inhibition [8] 6% | inhibition [9] 7% | inhibition (Caspase-9 (Homo sapiens)) -5% | inhibition (Bos taurus) -7% | inhibition (Rattus norvegicus [10]) 12% | inhibition [11] 4% | inhibition [12] 12% | inhibition (Homo sapiens) 22% | inhibition [13] 23% | inhibition [14] -4% | inhibition [15] -2% | inhibition [16] -1% | inhibition [17] 22% | inhibition [18] 0% | inhibition [19] 2% | inhibition [20] 6% | inhibition [21] 2% | inhibition [22] -1% | inhibition [23] -1% | inhibition [24] 4% | inhibition [25] 22%

CC(C)CC(=O)N1CCc2nc(-c3ccc(Br)cc3)nc(N(C)Cc3ccccc3)c2C1 [THPP-1-NC]
inactive: residual activity [26] 100% | residual activity [27] 96%
